# Publication PMC5477036, “Design and synthesis of biphenyl and biphenyl ether inhibitors of sulfatases” (Chemical Science, 2016)
# Key:
# Format in all cases: biochemical
# aryl sulfatase A (ARSA) = molecular target: T1, aryl sulfatase A (ARSA) (Homo sapiens, UniProt P15289); test: ARSA inhibition assay with 4-MUS substrate; conditions: 1 mM compound; 4-MUS substrate; means of two or more determinations; read-out: ARSA% inh @ 1 mM
# T1 construct: purchased R & D Systems
# T1 sequence (P15289 19-507): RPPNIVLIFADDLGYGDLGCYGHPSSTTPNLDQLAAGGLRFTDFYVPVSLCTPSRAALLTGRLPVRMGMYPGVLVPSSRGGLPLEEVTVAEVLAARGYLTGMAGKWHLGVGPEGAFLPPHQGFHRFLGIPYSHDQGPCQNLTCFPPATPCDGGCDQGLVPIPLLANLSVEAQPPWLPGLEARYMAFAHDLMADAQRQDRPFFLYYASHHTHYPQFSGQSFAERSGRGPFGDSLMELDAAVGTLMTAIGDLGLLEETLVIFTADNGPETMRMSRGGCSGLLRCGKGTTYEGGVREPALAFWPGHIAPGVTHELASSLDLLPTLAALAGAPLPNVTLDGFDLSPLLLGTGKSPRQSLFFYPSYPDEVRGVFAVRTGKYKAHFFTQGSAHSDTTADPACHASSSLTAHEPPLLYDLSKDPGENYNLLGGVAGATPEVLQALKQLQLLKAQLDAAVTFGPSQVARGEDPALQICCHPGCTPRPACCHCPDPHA
# Method: (§1) Compounds were assayed for their ability to inhibit the Sulf-2-catalysed desulfation of 4-methylumbelliferyl sulfate (4-MUS) to the fluorescent 4-methylumbelliferone (MU). To determine their sulfatase selectivity, inhibition of aryl sulfatases A (ARSA) and B (ARSB) was also assessed. To date no suitable benchmark inhibitors of these sulfatase have been reported. […] In the majority of cases the presence of a substituent on the B-ring was detrimental to Sulf-2 inhibition when compared with unsubstituted biphenyl sulfamate 76. Aminosulfates 54 and 62 and carboxylic acid 15 retained potency. […] Compounds 8, 10, 15, 50 and 51 were also relatively potent ARSA inhibitors. […] Aminosulfates 56 and 63 were the best Sulf-2 inhibitors lacking a trichloroethylsulfamate group.
# (§2) 1 – Biological assay protocols […]
# (§3) Omega data analysis software.
# (§4) ARSA and ARSB assay protocols
# (§5) Compounds were screened in a 96-well black plate (Sterilin) using 4-MUS as a substrate, using 50 μL reaction mixture containing 40 ng of the commercially available enzymes (ARSA or ARSB from R & D Systems), 50 mM HEPES (pH = 4.5), 10 mM CaCl2, 1 mM test compound (dissolved in DMSO; final concentration of DMSO in reaction = 2%), and H2O (45 μL). The assay mixture was incubated for 1 h at 37 °C, followed by addition of 5 μL of 4-MUS (Km = 1.6 mM for ARSA and 612 μM for ARSB), and incubation for a further 1 h at 37 °C. The reaction was stopped with 100 μL of 1 M Tris (pH = 10.5) and read at 460 nm following excitation at 355 nm in FLUOstar Omega plate reader (BMG Labtech) using Omega data analysis software.
# aryl sulfatase B (ARSB) = molecular target: T2, aryl sulfatase B (ARSB) (Homo sapiens, UniProt P15848); test: ARSB inhibition assay with 4-MUS substrate; conditions: 1 mM compound; 4-MUS substrate; means of two or more determinations; read-out: ARSB% inh @ 1 mM
# T2 construct: purchased R & D Systems
# T2 sequence (P15848 37-533, species assumed): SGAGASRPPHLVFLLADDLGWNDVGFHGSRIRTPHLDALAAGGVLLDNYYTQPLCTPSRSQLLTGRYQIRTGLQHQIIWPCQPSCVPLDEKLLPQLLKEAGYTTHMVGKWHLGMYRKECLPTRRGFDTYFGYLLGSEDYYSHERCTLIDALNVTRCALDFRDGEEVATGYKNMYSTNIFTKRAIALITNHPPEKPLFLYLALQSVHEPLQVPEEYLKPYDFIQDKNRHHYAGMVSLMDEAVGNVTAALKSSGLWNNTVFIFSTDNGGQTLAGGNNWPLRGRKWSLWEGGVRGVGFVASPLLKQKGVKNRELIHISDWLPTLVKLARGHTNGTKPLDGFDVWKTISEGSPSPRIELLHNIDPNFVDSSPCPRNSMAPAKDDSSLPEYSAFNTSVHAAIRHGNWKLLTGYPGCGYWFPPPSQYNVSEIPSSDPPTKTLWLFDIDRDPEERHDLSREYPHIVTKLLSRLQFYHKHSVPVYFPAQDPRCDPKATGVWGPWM
# Method: as §1, §2, §3, §4, §5
# Sulf-2 = molecular target: T3, Sulf-2 (Homo sapiens, UniProt Q8IWU5); test: Inhibition of Sulf-2-catalysed desulfation of 4-MUS to fluorescent MU; conditions: 1 mM compound; 4-MUS substrate; means of two or more determinations; read-out: Sulf-2% inh @ 1 mM
# T3 construct: host or cells: 293T cells, transiently transfected
# T3 sequence (Q8IWU5 25-870): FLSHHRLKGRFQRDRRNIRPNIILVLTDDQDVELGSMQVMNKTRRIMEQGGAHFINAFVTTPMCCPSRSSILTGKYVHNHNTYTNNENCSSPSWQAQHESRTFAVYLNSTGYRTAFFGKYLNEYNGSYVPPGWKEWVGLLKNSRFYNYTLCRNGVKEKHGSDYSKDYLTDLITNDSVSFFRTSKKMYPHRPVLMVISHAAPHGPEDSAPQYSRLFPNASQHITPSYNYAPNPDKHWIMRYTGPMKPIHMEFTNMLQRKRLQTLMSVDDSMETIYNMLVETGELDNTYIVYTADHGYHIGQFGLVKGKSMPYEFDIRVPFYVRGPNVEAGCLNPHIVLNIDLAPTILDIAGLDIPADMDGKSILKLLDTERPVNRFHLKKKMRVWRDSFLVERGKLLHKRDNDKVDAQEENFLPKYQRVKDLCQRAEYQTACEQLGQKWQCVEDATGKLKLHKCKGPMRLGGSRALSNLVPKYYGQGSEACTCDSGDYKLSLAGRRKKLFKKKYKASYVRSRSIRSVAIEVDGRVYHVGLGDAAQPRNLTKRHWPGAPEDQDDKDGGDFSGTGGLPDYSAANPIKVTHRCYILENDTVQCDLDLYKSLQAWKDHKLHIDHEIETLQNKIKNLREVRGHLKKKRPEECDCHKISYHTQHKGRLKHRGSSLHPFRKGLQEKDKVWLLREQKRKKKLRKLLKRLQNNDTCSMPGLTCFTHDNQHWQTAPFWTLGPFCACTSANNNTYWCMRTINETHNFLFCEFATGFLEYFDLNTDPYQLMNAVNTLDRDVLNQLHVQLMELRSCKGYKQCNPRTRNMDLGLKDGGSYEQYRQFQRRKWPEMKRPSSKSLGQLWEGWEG
# Method: as §1
# 1 – Biological assay protocols
# Compounds were screened using 4-MUS as a substrate for Sulf-2 according to a protocol described by Morimoto-Tomita et al.1 Briefly 293T cells were transiently transfected with pcDNA3.1/Myc-His(-)-HSulf-2 DNA (Addgene) and TransIT-LT1 Transfection Reagent (Mirus) using a transfection mixture at the ratio 1:3 (µg DNA:
# µL transfection reagent) in Opti-MEM I reduced serum medium (Gibco). Conditioned medium containing Sulf-2 was collected after 3 days and bound to HIS-Select Nickel affinity gel (Sigma) overnight at 4 °C. Beads were washed three times with washing buffer containing 50 mM HEPES (pH 7.5), 300 mM NaCl, 0.05% Tween 20, followed by washing once with washing buffer containing no tween. Beads were suspended in 50 mM Hepes (pH 7.5) and used in inhibition assays. 20 μL of bead slurry was incubated with 1 mM compound (in DMSO) plus 10X reaction buffer (500 mM HEPES pH 7.5, 100 mM CaCl2) for 1 h at 37 °C. The reaction was started by the addition of 20 μL of 20 mM 4-MUS (final concentration of 8 mM) and incubated at 37 °C for 1 h. The reaction was stopped with 100 μL 1 M Tris buffer (pH 10.4) and read at 460 nm following excitation at 355 nm in FLUOstar Omega plate reader (BMG Labtech) using Omega data analysis software. […]
Compound,inhibition at 1000 µM (aryl sulfatase A (ARSA)),inhibition at 1000 µM (aryl sulfatase B (ARSB)),inhibition at 1000 µM (Sulf-2)
O=S(=O)(Nc1cccc(-c2ccccc2)c1)OCC(F)(F)F [Compound 82],78%,92%,5%
O=S(=O)(Nc1ccccc1)OCC(Cl)(Cl)Cl [Compound 83],63%,68%,3%
